{"source": "patent US11951113B2", "about": "“Synergestic combination composition comprising a steroidal saponin, a first polyphenolic compound and a second polyphenolic compound” (NEURALIA, priority 2018, dated 2024)", "tested_on": "primary cortical neurons injured by glutamate", "assay": "Neuroprotection of primary cortical neurons injured by glutamate: neuron survival and neurite network (MAP-2 staining)", "format": "cell-based, rat", "settings": "for effect on neuritic network / effect on neuron survival: glutamate 40 μM", "experimental": "Rat cortical neurons were cultured as described by Singer et al., (J. Neuroscience, (1999), 19(7), 2455-2463) and Callizot et al. (J. Neurosc., (2013), Res. 91(5), 706-716).\nPregnant females (Wistar; JanvierLabs, St Berthevin, France) at 15 days of gestation were killed by cervical dislocation. Foetuses were collected and immediately placed in ice-cold L15 Leibovitz medium (Pan Biotech, Aidenbach, Germany) with a 2% penicillin (10,000 U/ml) and streptomycin (10 mg/ml) solution (PS; Pan Biotech, Aidenbach, Germany) and 1% bovine serum albumin (BSA; Pan Biotech, Aidenbach, Germany). Cortex was treated for 20 min at 37° C. with a trypsin-EDTA (Pan Biotech, Aidenbach, Germany) solution at a final concentration of 0.05% trypsin and 0.02% EDTA. The dissociation was stopped by addition of Dulbecco's modified Eagle's medium (DMEM) with 4.5 g/liter of glucose (Pan Biotech, Aidenbach, Germany), containing DNAse I grade II (final concentration 0.5 mg/ml; Pan Biotech, Germany) and 10% fetal calf serum (FCS; Invitrogen, Cergy Pointoise, France). Cells were mechanically dissociated by three forced passages through the tip of a 10-ml pipette. Cells were then centrifuged at 515 g for 10 min at 4° C. The supernatant was discarded, and the pellet was resuspended in a defined culture medium consisting of Neurobasal medium (Invitrogen, Cergy Pointoise, France) with a 2% solution of B27 supplement (Invitrogen, Cergy Pointoise, France), 2 mmol/liter of L-glutamine (Pan Biotech, Aidenbach, Germany), 2% of PS solution, and 10 ng/ml of brain-derived neurotrophic factor (BDNF; Pan Biotech, Aidenbach, Germany). Viable cells were counted in a Neubauer cytometer, using the trypan blue exclusion test. The cells were seeded at a density of 30,000 per well in 96-well plates precoated with poly-L-lysine (Corning Biocoat, Tewksbury, USA) and were cultured at 37° C. in an air (95%)-CO2 (5%) incubator. The medium was changed every 2 days. The cortical neurons were intoxicated with glutamate solutions (see below) after 13 days of culture.\nOn day 13, glutamate (Sigma Aldrich, Lyon, France) was added into cell culture to a final concentration of 40 μM diluted in control medium in presence or absence of test compounds for 20 min. After 20 min, the cells were washed-out and new fresh medium containing or not NSPXX-E2 or NSPXX-E1 extracts was added for 48 h additional time.\nAfter 48 hours of glutamate intoxication, cells were fixed by a cold solution of ethanol (95%, Sigma) and acetic acid (5%, Sigma) for 5 min at −20° C. After permeabilization with 0.1% of saponin (Sigma), cells were incubated for 2 h with mouse monoclonal antibody anti microtubule-associated-protein 2 (MAP-2; Sigma) at dilution of 1/400 in PBS (Pan biotech) containing 1% foetal calf serum (Invitrogen) and 0.1% of saponin.\n(§1) For each condition 6 wells were assessed, 30 pictures per well were taken using MetaXpress (molecular device) with 20× magnification (30 pictures at X20 representing ˜80% of the total well surface), to assess neurite network (MAP-2 staining). Analysis of picture was done using MetaXpress custum module editor software (molecular device), the total neurite length per picture was recorded). A mean neurite length of the ten pictures was automatically calculated per well, then one data was provided per well (total of 6 raw data were provided per condition).\nas §1, with “magnification” for “magnification (30 pictures at X20 representing ˜80% of the total well surface),”, “cell bodies” for “neurite network”, “number of neurons” for “total neurite length”, “recorded.” for “recorded).”, “of neuron number” for “neurite length”\nAll values were expressed as mean+/−s.e.mean. […]"}
{"molecule": "C[C@@H]1CC[C@@]2(OC1)O[C@H]1C[C@H]3[C@@H]4CC=C5C[C@@H](O[C@@H]6O[C@H](CO)[C@@H](O[C@@H]7O[C@@H](C)[C@H](O)[C@@H](O)[C@H]7O)[C@H](O)[C@H]6O[C@@H]6O[C@@H](C)[C@H](O)[C@@H](O)[C@H]6O)CC[C@]5(C)[C@H]4CC[C@]3(C)[C@H]1[C@@H]2C", "note": "[DIOS, dioscin]", "values": [{"measurement": "effect on neuritic network", "setting": "6.3 nM-630 nM, 20 min", "value": "significant protective effect"}]}
{"molecule": "C[C@@H]1CC[C@@]2(OC1)O[C@H]1C[C@H]3[C@@H]4CC=C5C[C@@H](O)CC[C@]5(C)[C@H]4CC[C@]3(C)[C@H]1[C@@H]2C", "note": "[DIOSG, diosgenin]", "values": [{"measurement": "effect on neuritic network", "setting": "3 pM-30 pM, 20 min", "value": "significant protective effect"}, {"measurement": "reduction of the concentration of diosgenin compared to diosgenin used alone", "setting": "diosgenin combined with caffeic acid or ferulic acid", "value": 10, "unit": "fold"}]}
{"molecule": "COc1cc(/C=C/C(=O)O)ccc1O", "note": "[FA, ferulic acid]", "values": [{"measurement": "effect on neuritic network", "setting": "1 μM-100 μM, 20 min", "value": "significant protective effect"}]}
{"molecule": "O=C(O)c1cc(O)c(O)c(O)c1", "note": "[Gallic acid, gallic acid]", "values": [{"measurement": "viability at 10 µM", "setting": "Rattus norvegicus, Primary cortical neuron, 20 min", "value": "~80", "unit": "%"}, {"measurement": "effect on neuritic network", "setting": "between 10 pM and 1 μM, 20 min", "value": "significant protective effect"}]}
{"molecule": "C[C@H]1CC[C@@]2(OC1)O[C@H]1C[C@H]3[C@@H]4CC[C@@H]5C[C@@H](O)CC[C@]5(C)[C@H]4CC[C@]3(C)[C@H]1[C@@H]2C", "note": "[SAR, sarsasapogenin]", "values": [{"measurement": "effect on neuritic network", "setting": "100 pM-100 nM, 20 min", "value": "protective effect"}, {"measurement": "effect on neuron survival", "setting": "100 nM, 20 min", "value": "significant protective effect"}, {"measurement": "toxicity for cortical neurons and for neuritic network", "setting": "1 μmol/L or 10 μmol/L", "value": "toxic"}, {"measurement": "toxicity on cortical neurons", "setting": "at the highest concentrations tested", "value": "toxic"}, {"measurement": "effect on neuritic network", "setting": "between 100 pM and 10 nM, 20 min", "value": "significant protective effect"}, {"measurement": "reduction of the steroidal saponin concentration compared to sarsasapogenin used alone", "setting": "sarsasapogenin combined with caffeic acid or ferulic acid", "value": 10, "unit": "fold"}]}
{"molecule": "O=c1c(O)c(-c2ccc(O)c(O)c2)oc2cc(O)cc(O)c12", "note": "[quercetin]", "values": [{"measurement": "effect on neurite network", "setting": "100 nM and 1 μM, glutamate injury", "value": "significant protective effect"}]}
{"molecule": "catechin", "values": [{"measurement": "effect on neuritic network", "setting": "1 nM-1 μM, 20 min", "value": "protective effect"}, {"measurement": "effect on neuron survival", "setting": "between 100 nM and 1 μM, 20 min", "value": "significant protective effect"}, {"measurement": "effect on neuritic network", "setting": "between 500 nM and 5 μM, 20 min", "value": "significant protective effect"}]}
